# Results as given in patent US20230414778A1, “COMBINATION OF ANTIBODY-DRUG CONJUGATE WITH ANTI-SIRPalpha ANTIBODY” (DAIICHI SANKYO COMPANY, LIMITED, priority 2020, published 2023).
# How the values were obtained:
# [1] = system: mouse colorectal cancer cell line CT26.WT; assay: ICD induction evaluation (in vitro): ATP in culture supernatant; type: cell-based; conditions: CT26.WT culture supernatant after 24 hours; MTX 0.4-6 μM vs control (0 μM); compound (A) 1-16 μM vs R10 or R10-DMSO
# Method: In cancer cells treated with different compounds, the ATP level, and the expression level of HMGB1, which serve as an index of Immunogenic cell death (ICD), were measured. Cells of mouse colorectal cancer cell line CT26.WT were seeded in a 6-well plate and cultured overnight. After the supernatant was removed, the cells were washed twice with PBS. Compound (A) was dissolved in RPMI1640 culture solution containing 10% FBS (R10) to prepare solutions having a final concentration of 0, 1, 4 and 16 μM. As a positive control, Mitoxantrone (MTX) was dissolved in DMSO and added at a final concentration of 0.4, 1.5 and 6 μM. To the control (0 μM) herein, DMSO was added in the same amount as that of compound (A) (R10-DMSO). Twenty four hours later, the culture supernatant was collected, and the levels of ATP and HMGB1 were measured. The level of ATP was measured by adding the culture supernatant in a 96-well white plate, adding the same amount of Back titer-Glo (manufactured by Promega Corporation) and determining the amount of luminescence by a plate reader. The level of HMGB1 was detected by a HMGB1 ELISA-kit (manufactured by Shino-Test Corporation) in accordance with the Sandwich ELISA method. […] The absorbance at 405 nm was measured by a plate reader. […] The results satisfying P<0.05 (two-sided test) were determined as being significant.
# [2] = system: mouse colorectal cancer cell line CT26.WT; assay: ICD induction evaluation (in vitro): HMGB1 in culture supernatant (ELISA); type: cell-based; conditions: for release of HMGB1, maximum, relative to control: CT26.WT culture supernatant after 24 hours, MTX 0.4-6 μM vs control (0 μM), compound (A) 1-16 μM vs R10 or R10-DMSO; for HMGB1 released in the culture supernatant (confirmation of ICD induction): Example 3, CT26.WT, compound (A) 4 μM or MTX 1 μM, 24 hours
# Method: In cancer cells treated with different compounds, the ATP level, and the expression level of HMGB1, which serve as an index of Immunogenic cell death (ICD), were measured. Cells of mouse colorectal cancer cell line CT26.WT were seeded in a 6-well plate and cultured overnight. After the supernatant was removed, the cells were washed twice with PBS. Compound (A) was dissolved in RPMI1640 culture solution containing 10% FBS (R10) to prepare solutions having a final concentration of 0, 1, 4 and 16 μM. As a positive control, Mitoxantrone (MTX) was dissolved in DMSO and added at a final concentration of 0.4, 1.5 and 6 μM. To the control (0 μM) herein, DMSO was added in the same amount as that of compound (A) (R10-DMSO). Twenty four hours later, the culture supernatant was collected, and the levels of ATP and HMGB1 were measured. The level of ATP was measured by adding the culture supernatant in a 96-well white plate, adding the same amount of Back titer-Glo (manufactured by Promega Corporation) and determining the amount of luminescence by a plate reader. The level of HMGB1 was detected by a HMGB1 ELISA-kit (manufactured by Shino-Test Corporation) in accordance with the Sandwich ELISA method. In the plate provided in the kit, a test buffer was added, and thereafter, an HMGB1 standard solution diluted with the test buffer and the culture supernatant were added thereto. It was allowed to stand at 37° C. for 24 hours. After the supernatant was removed and the cells were washed five times with PBS/Tween 20 (200 μL/well), a secondary-antibody solution provided in the kit was added in an amount of 100 μL/well. It was allowed to stand at room temperature for 2 hours. After the supernatant was removed, the cells were washed five times with PBS/Tween 20 (200 μL/well). Thereafter, a color-producing solution provided in the kit was added in an amount of 100 μL/well. The plate was allowed to stand at room temperature for 30 minutes. A stop solution (100 μL/well) was added and stirred. The absorbance at 405 nm was measured by a plate reader. The results of the control group and compound (A) group were compared in accordance with the Dunnett's test. P value was expressed to four decimal places. The results satisfying P<0.05 (two-sided test) were determined as being significant.
# (§1) Cells of mouse colorectal cancer cell line CT26.WT were seeded in a cell-culture flask and cultured overnight. The supernatant was removed and the cells were washed twice with PBS. To induce ICD, compound (A) (4 μM) or MTX (1 μM) was added in a RPMI1640 culture solution containing 10% FBS (R10). Twenty four hours later, HMGB1 in the culture supernatant was measured in accordance with the method shown in Example 1 in order to confirm ICD induction.
# CT26.WT cells = assay: Evaluation of in vivo ICD induction (vaccination effect, re-challenge); design: species or system BALB/c mice; conditions: mice inoculated with drug-treated CT26.WT cells, n=6
# Method: as §1
# For evaluating in vivo ICD, the culture supernatant was removed from each of the culture flasks treated with drugs and the cells were washed twice with PBS, and then cells were collected. The supernatant was removed and the cells were washed once with PBS to prepare a suspension containing 5.0×10^6 cells/mL. As a control, a suspension was prepared by adding CT26.WT cells, which were cultured in a RPMI1640 culture solution containing 10% FBS without a drug, in an amount of 5.0×10^6 cells/mL, in the same manner as above. After centrifugation, the supernatant was removed. The cells were subjected to a freeze-thaw process repeatedly three times and suspended again in PBS to obtain Necrotic cell death (NCD) cells.
# The cells (5.0×10^6 cells) of each group mentioned above were subcutaneously inoculated into the right axilla of each of female 6 week-old BALB/c mice (BALB/c AnNCrlCrlj) (bred by CHARLES RIVER LABORATORIES JAPAN, INC.) (inoculation, Day 0). An anti-SIRPα antibody (clone: 5C12) or an anti-CD47 antibody (clone: MIAP410, manufactured by Bio X Cell, Inc.) was intraperitoneally administered at a dose of 10 mg/kg on Day 1 and 5 (two times in total). As a control, the same amount of PBS was administered. Seven days later, CT26.WT cells (3.0×10^6 cells) not treated with a drug were subcutaneously inoculated into the left axilla of each of the mice (re-challenge, Day 0). On Day 14, tumor volumes were measured to evaluate vaccination effect. Note that the number of mice per group was 6. The results of the NCD-PBS group and individual groups were compared in accordance with the Dunnett's test, P value was expressed to four decimal places. The results satisfying P<0.05 (two-sided test) were determined as being significant.
# [3] = PBS administration, re-challenge, Day 14
# [4] = plus anti-SIRPα antibody (clone 5C12) 10 mg/kg i.p. Day 1 and 5
SMILES,"release of ATP, maximum, relative to control [1]","release of HMGB1, maximum, relative to control [2]",HMGB1 released in the culture supernatant (confirmation of ICD induction) [2],number of CR individuals (engraftment of re-challenged tumor rejected) (CT26.WT cells; [3]),number of CR individuals (engraftment of re-challenged tumor rejected) (CT26.WT cells; [4]),number of CR individuals (engraftment of re-challenged tumor rejected) (CT26.WT cells; plus anti-CD47 antibody (clone MIAP410) 10 mg/kg i.p. Day 1 and 5)
"O=C1c2c(O)ccc(O)c2C(=O)c2c(NCCNCCO)ccc(NCCNCCO)c21 [MTX, Mitoxantrone, reference compound]",about 4 times,about 3 times,released,2/6,4/6,–
CC[C@@]1(O)C(=O)OCc2c1cc1n(c2=O)Cc2c-1nc1cc(F)c(C)c3c1c2[C@@H](NC(=O)CO)CC3 [compound (A)],about 4.6 times,about 4.6 times,released,5/6,all cases show CR,all cases show CR
